The record followed here is patent US20240158446A1, “CYCLIC COMPOUND HAVING SELECTIVE INHIBITORY ACTION ON KRAS OVER HRAS AND NRAS” (CHUGAI SEIYAKU KABUSHIKI KAISHA, priority 2021, published 2024).

Structures are written as SMILES.

The target in assay [1] is GDP-bound KRAS wild-type protein (Homo sapiens, UniProt P01116). Briefly: Binding to KRAS by surface plasmon resonance (SPR), Single Cycle Kinetics. The following applies: SPR, Single Cycle Kinetics, GDP-bound KRAS wild-type protein; read-out: KRAS KD.
Sequence of GDP-bound KRAS wild-type protein (P01116 whole entry): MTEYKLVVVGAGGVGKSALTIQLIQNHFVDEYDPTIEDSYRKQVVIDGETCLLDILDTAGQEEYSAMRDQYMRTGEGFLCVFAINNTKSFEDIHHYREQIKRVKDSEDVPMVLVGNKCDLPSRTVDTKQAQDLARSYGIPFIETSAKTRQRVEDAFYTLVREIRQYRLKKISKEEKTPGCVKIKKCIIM
For assay [2], the target named is GDP-bound NRAS wild-type protein (Homo sapiens, UniProt P01111). Briefly: Binding to NRAS by surface plasmon resonance (SPR), Single Cycle Kinetics. The settings on record: SPR; for NRAS/KRAS (ratio of KD value for NRAS to KD value for KRAS): GDP-bound NRAS wild-type protein vs GDP-bound KRAS wild-type protein.
Sequence of GDP-bound NRAS wild-type protein (P01111 whole entry): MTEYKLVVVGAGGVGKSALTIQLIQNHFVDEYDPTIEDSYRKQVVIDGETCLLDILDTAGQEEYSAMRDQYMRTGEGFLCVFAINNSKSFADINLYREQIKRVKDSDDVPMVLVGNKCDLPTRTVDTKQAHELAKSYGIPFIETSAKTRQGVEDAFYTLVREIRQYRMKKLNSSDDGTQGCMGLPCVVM
The target of assay [3] is GDP-bound HRAS wild-type protein (Homo sapiens, UniProt P01112). Briefly: Binding to HRAS by surface plasmon resonance (SPR), Single Cycle Kinetics. The settings on record: SPR; for HRAS/KRAS (ratio of KD value for HRAS to KD value for KRAS): GDP-bound HRAS wild-type protein vs GDP-bound KRAS wild-type protein.
Sequence of GDP-bound HRAS wild-type protein (P01112 whole entry): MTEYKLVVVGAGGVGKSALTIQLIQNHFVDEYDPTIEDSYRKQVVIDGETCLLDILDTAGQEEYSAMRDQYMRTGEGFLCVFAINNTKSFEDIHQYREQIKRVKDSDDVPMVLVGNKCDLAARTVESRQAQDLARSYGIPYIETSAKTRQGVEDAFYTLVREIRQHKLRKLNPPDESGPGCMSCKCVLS
Assay [4] relates to human lung cancer strain NCI-H441. The following applies: read-out: NCI-H441 cell proliferation inhibitory activity, 50% proliferation inhibitory concentration (IC50 value); NCI-H441, four days, CellTiter-Glo.
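Wherever IC50 is given: cell proliferation inhibition after four days measured by CellTiter-Glo.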

As for `CC[C@H](C)[C@@H]1NC(=O)[C@@H]2CCCc3ccc(cc3)C[C@@H](C(=O)N(C)CC(=O)N[C@@H](CCc3ccc(C(F)(F)F)c(OC)c3)C(=O)N3C[C@H](OC4CCC4)C[C@H]3C(=O)NC3(CC(C)(C)C3)C(=O)N(C)[C@@H](C3CCCC3)C(=O)N(C)[C@H](C(=O)N(C)CC)CC(=O)N2C)N2CC/C=C\C[C@@H](C2=O)N(C)C(=O)CN(C)C1=O` [PP3085], the Kd in assay [1] stood at 0.11 nM. In assay [2], the “NRAS/KRAS (ratio of KD value for NRAS to KD value for KRAS)” value was “A (a compound having 10 or more and less than 20 is denoted as A)”; the “ratio of the KD value with respect to GDP-bound NRAS wild-type protein to the KD value with respect to KRAS” value is “A (a compound having 10 or more and less than 20 is denoted as A)”. Further, in assay [3], the “HRAS/KRAS (ratio of KD value for HRAS to KD value for KRAS)” value is “B (a compound having 3 or more and less than 10 is denoted as B)”; the “ratio of the KD value with respect to GDP-bound HRAS wild-type protein to the KD value with respect to KRAS” value was “B (a compound having 3 or more and less than 10 is denoted as B)”. The IC50 in assay [4] turned out to be 6.3 nM.

`CC[C@H](C)[C@@H]1NC(=O)[C@@H]2CCCc3ccc(cc3)C[C@@H](C(=O)N(C)CC(=O)N[C@@H](CCc3ccc(C(F)(F)F)c(OC)c3)C(=O)N3C[C@H](OC4CCCC4)C[C@H]3C(=O)NC3(CC(C)(C)C3)C(=O)N(C)[C@@H](C3CCCC3)C(=O)N(C)[C@H](C(=O)N(C)CC)CC(=O)N2C)N2CC/C=C\C[C@@H](C2=O)N(C)C(=O)CN(C)C1=O` [PP3086]: the Kd in assay [1] worked out at 0.2 nM. In assay [2], the “NRAS/KRAS (ratio of KD value for NRAS to KD value for KRAS)” value is “B (a compound having 3 or more and less than 10 is denoted as B)”; the “ratio of the KD value with respect to GDP-bound NRAS wild-type protein to the KD value with respect to KRAS” value is “B (a compound having 3 or more and less than 10 is denoted as B)”. Further, in assay [3], the “HRAS/KRAS (ratio of KD value for HRAS to KD value for KRAS)” value was “B (a compound having 3 or more and less than 10 is denoted as B)”; the “ratio of the KD value with respect to GDP-bound HRAS wild-type protein to the KD value with respect to KRAS” value is “B (a compound having 3 or more and less than 10 is denoted as B)”. Moreover, the IC50 in assay [4] came out at 7.9 nM.

For the compound `CC[C@H](C)[C@@H]1NC(=O)[C@@H]2CCCc3ccc(cc3)C[C@@H](C(=O)N(C)CC(=O)N[C@@H](CCc3ccc(C(F)(F)F)c(OC)c3)C(=O)N3CC4(CC4)C[C@H]3C(=O)NC3(CC(C)(C)C3)C(=O)N(C)[C@@H](C3CCCC3)C(=O)N(C)[C@H](C(=O)N(C)CC)CC(=O)N2C)N2CC/C=C\C[C@@H](C2=O)N(C)C(=O)CN(C)C1=O` [PP3087], the dissociation constant Kd in assay [1] came to 0.22 nM. In addition, in assay [2], the “NRAS/KRAS (ratio of KD value for NRAS to KD value for KRAS)” value was “A (a compound having 10 or more and less than 20 is denoted as A)”; the “ratio of the KD value with respect to GDP-bound NRAS wild-type protein to the KD value with respect to KRAS” value is “A (a compound having 10 or more and less than 20 is denoted as A)”. Moreover, in assay [3], the “HRAS/KRAS (ratio of KD value for HRAS to KD value for KRAS)” value was “B (a compound having 3 or more and less than 10 is denoted as B)”; the “ratio of the KD value with respect to GDP-bound HRAS wild-type protein to the KD value with respect to KRAS” value is “B (a compound having 3 or more and less than 10 is denoted as B)”. In assay [4], the IC50 came to 6.9 nM.

Turning to `CCCO[C@@H]1C[C@H]2C(=O)NC3(CC(C)(C)C3)C(=O)N(C)[C@@H](C3CCCC3)C(=O)N(C)[C@H](C(=O)N(C)CC)CC(=O)N(C)[C@H]3CCCc4ccc(cc4)C[C@@H](C(=O)N(C)CC(=O)N[C@@H](CCc4ccc(C(F)(F)F)c(OC)c4)C(=O)N2C1)N1CC/C=C\C[C@@H](C1=O)N(C)C(=O)CN(C1CC1)C(=O)[C@H]([C@@H](C)CC)NC3=O` [PP3088], the Kd in assay [1] turned out to be 0.34 nM. In assay [2], the “NRAS/KRAS (ratio of KD value for NRAS to KD value for KRAS)” value is “B (a compound having 3 or more and less than 10 is denoted as B)”; the “ratio of the KD value with respect to GDP-bound NRAS wild-type protein to the KD value with respect to KRAS” value is “B (a compound having 3 or more and less than 10 is denoted as B)”. In assay [3], the “HRAS/KRAS (ratio of KD value for HRAS to KD value for KRAS)” value was “B (a compound having 3 or more and less than 10 is denoted as B)”; the “ratio of the KD value with respect to GDP-bound HRAS wild-type protein to the KD value with respect to KRAS” value was “B (a compound having 3 or more and less than 10 is denoted as B)”. Also, the IC50 in assay [4] was 15.1 nM.
